Measured values as given in patent publication US12559769B2, “Methods and compositions for the activation of tumor cytotoxicity via human gamma-delta t-cells” (priority 2017, dated 2026).

Tested on: Vγ9Vδ2 T cells
Experiment: Activation of Vγ9Vδ2 T cells (TNF-α, flow cytometry) by PC3 prostate carcinoma cells co-cultured with expanded PBMC
Format: cell-based, human
Experimental: PC3 cells were transduced with either LV-vector, LV-BTN3A3 (R381H), or LV-BTN3A3 (WT). Three days after transduction, cells were treated with or without 1 μM zoledronic acid. After 24 hours, the transduced PC3 cells were co-cultured with 5×10^5 PBMC cells and IL-2 in a round bottom 96 well plate for 4 hours. The PBMC cells were pre-stimulated with zoledronic acid and IL-2 for 11 days to expand Vγ9Vδ2 T cells. After staining for Vγ9Vδ2 and TNF-α using fluorophore-conjugated anti TCR-Vδ2 and anti-TNF-α antibody, cells were analyzed via flow cytometry. Live cells were gated, and Vδ2+ and TNF-α+ cells were selected on a dot blot. The activated cytotoxic Vγ9Vδ2 T cells appeared in the upper right quadrant of flow cytograms. Without zoledronic acid, the percent of TNF-α expressing Vγ9Vδ2 T cells was 0.37% with LV-vector, 26.7% with BTN3A3 (R381H), and 0.44% with LV-BTN3A3 (WT). With zoledronic acid, the percent of TNF-α expressing Vγ9Vδ2 T cells was 8.91% with LV-vector, 35.2% with BTN3A3 (R381H), and 8.76% with LV-BTN3A3 (WT).
PC3 cells were transduced with LV-vector, LV-BTN3A3 (R381H), or LV-shFDPS-BTN3A3 (R381H). Three days after transduction, cells were treated with or without 1 μM zoledronic acid. After 24 hours, the transduced PC3 cells were co-cultured with 5×10^5 PBMC cells and IL-2 in a round bottom 96 well plate for 4 hours. The PBMC cells were pre-stimulated with zoledronic acid and IL-2 for 11 days to expand Vγ9Vδ2 T cells. After staining for Vγ9Vδ2 and TNF-α using fluorophore-conjugated anti TCR-Vδ2 and anti-TNF-α antibody, cells were analyzed via flow cytometry. Live cells were gated, and Vδ2+ and TNF-α+ cells were selected on a dot blot. The activated cytotoxic Vγ9Vδ2 T cells appeared in the upper right quadrant of flow cytograms. Without zoledronic acid, the percent of TNF-α expressing Vγ9Vδ2 T cells was 0.1% with LV-vector, 21.1% with BTN3A3 (R381H), and 18.2% with the combination of LV-shFDPS-BTN3A3 (R381H). With zoledronic acid, the percent of TNF-α expressing Vγ9Vδ2 T cells was 13.6% with LV-vector, 25.5% with BTN3A3 (R381H), and 39.6% with the combination of LV-shFDPS-BTN3A3 (R381H).
PC3 cells were transduced with LV-shFDPS or LV-shFDPS-IL-2. Three days after transduction, cells were treated with or without 1 μM zoledronic acid. After 24 hours, the transduced PC3 cells were co-cultured with 5×10^5 PBMC cells and with or without IL-2 in a round bottom 96 well plate for 4 hours. The PBMC cells were pre-stimulated with zoledronic acid and IL-2 for 11 days to expand Vγ9Vδ2 T cells. After staining for Vγ9Vδ2 and TNF-α using fluorophore-conjugated anti TCR-Vδ2 and anti-TNF-α antibody, cells were analyzed via flow cytometry. Live cells were gated, and Vδ2+ and TNF-α+ cells were selected on a dot blot. The activated cytotoxic Vγ9Vδ2 T cells appeared in the upper right quadrant of flow cytograms. With only zoledronic acid, the percent of TNF-α expressing Vγ9Vδ2 T cells was 24.6% with LV-shFDPS and 46.8% with LV-shFDPS-IL-2. With zoledronic acid and IL-2, the percent of TNF-α expressing Vγ9Vδ2 T cells was 48.6% with LV-shFDPS and 41% with LV-shFDPS-IL-2.
PC3 cells were transduced with LV-vector, LV-shFDPS, or LV-shFDPS-IL-15. Three days after transduction, cells were treated with or without 1 μM zoledronic acid. After 24 hours, the transduced PC3 cells were co-cultured with 5×10^5 PBMC cells and with or without IL-2 in a round bottom 96 well plate for 4 hours. The PBMC cells were pre-stimulated with zoledronic acid and IL-2 for 11 days to expand Vγ9Vδ2 T cells. After staining for Vγ9Vδ2 and TNF-α using fluorophore-conjugated anti TCR-Vδ2 and anti-TNF-α antibody, cells were analyzed via flow cytometry. Live cells were gated, and Vδ2+ and TNF-α+ cells were selected on a dot blot. The activated cytotoxic Vγ9Vδ2 T cells appeared in the upper right quadrant of flow cytograms. With only zoledronic acid, the percent of TNF-α expressing Vγ9Vδ2 T cells was 10% with LV-vector, 13% with LV-shFDPS, and 14.6% with LV-shFDPS-IL-15. […]

[1] = Example 25, FIG. 29, LV-FDPS shRNA #4 transduced PC3 cells, drug 1 μM, 24 hours
[2] = Example 25, FIG. 29, LV-control transduced PC3 cells, 1 μM, 24 hours, untreated 1.73%

Structure (SMILES)	percent of TNF-α expressing Vγ9Vδ2 T cells [1] [%]	percent of TNF-α expressing Vγ9Vδ2 T cells [2] [%]	percent of TNF-α expressing Vγ9Vδ2 T cells (Example 3, LV-vector (control) transduced PC3 cells, 1 μM zoledronic acid) [%]	percent of TNF-α expressing Vγ9Vδ2 T cells (Example 5, LV-vector (control) transduced PC3 cells, 1 μM zoledronic acid) [%]	percent of TNF-α expressing Vγ9Vδ2 T cells (Example 8, LV-vector (control) transduced PC3 cells, only zoledronic acid (1 μM)) [%]	percent of TNF-α expressing Vγ9Vδ2 T cells (Example 8, LV-vector (control) transduced PC3 cells, zoledronic acid (1 μM) and IL-2) [%]	percent of TNF-α expressing Vγ9Vδ2 T cells (Example 19, LV-control transduced PC3 cells, 1 μM zoledronic acid) [%]	percent of TNF-α expressing Vγ9Vδ2 T cells (Example 23, LV-control transduced PC3 cells, 1 μM zoledronic acid) [%]	percent of TNF-α expressing Vγ9Vδ2 T cells (Example 25, FIG. 29, LV-FDPS shRNA #4 transduced PC3 cells, drug 5 μM, 24 hours) [%]	percent of TNF-α expressing Vγ9Vδ2 T cells (Example 25, FIG. 29, LV-control transduced PC3 cells, 5 μM, 24 hours, untreated 1.73%) [%]
COC(=O)[C@H](CCSC)NC(=O)c1ccc(NC[C@@H](N)CS)cc1-c1ccccc1 [FT1277]	2.44	1.64								
O=P(O)(O)C(O)(Cn1ccnc1)P(=O)(O)O [zoledronic acid]	50.3	2.87	8.91	13.6	10	14.5	5.71	8.66		
C=C(CC[C@]12O[C@H](C(=O)O)[C@@](O)(C(=O)O)[C@](C(=O)O)(O1)[C@H](OC(=O)/C=C/[C@@H](C)C[C@@H](C)CC)[C@H]2O)[C@@H](OC(C)=O)[C@H](C)Cc1ccccc1 [zaragozic acid]									2.66	1.57
